According to patent publication US5972894A, “Peptides having potassium channel opener activity” (Cytran, Inc., priority 1997, dated 1999):
“And” between values parts separate entries of the source, which are not always exact repeats. Equal values may be shown once. Residues, ends and D or L forms follow the SMILES beside them.

Assays:
Intestinal Smooth Muscle = assay: Calcium-induced contraction of intestinal smooth muscle specimens; type: cell-based, guinea pigs; settings: 20 mM CaCl2
Experimental: GE and VT served as test substances in this experiment. GE was tested at concentrations of 10^-6 g/ml and 10^-5 g/ml (4.9×10^-6 M and 4.9×10^-5 M, respectively), and VT was tested at concentrations 10^-6 g/ml and 10^-5 g/ml (4.58×10^-6 and 4.58×10^-5 M, respectively).
Small intestinal SMS samples from ten guinea pigs were surgically isolated and prepared as follows. First, the SMS samples were preincubated for 40 minutes in an organ bath holding a standard Krebs-Henseleit physiological salt solution containing calcium chloride (CaCl2) at concentration of 2.5 mM. Next, each SMS was washed with a calcium-free solution of Krebs-Henseleit and incubated in a calcium-free Krebs-Henseleit solution for 40 minutes. Contractile activity was pre-induced in each SMS by first perfusing the organ bath containing the sample for 15 minutes with a Krebs-Henseleit solution containing 30 mM KCl and then perfusing the bath for an additional 15 minutes with a Krebs-Henseleit solution containing 20 mM CaCl2. Finally, each SMS sample was washed with a calcium-free Krebs-Henseleit solution for 40 minutes. In these experiments, measurements of the contractile response of the SMS following the addition of a Krebs-Henseleit solution containing 20 mM calcium served as the control (baseline). Changes in contraction amplitudes were recorded by using the method set forth in Step 1 of Example 2, above.
After washing the SMS as outlined in Step 1, the organ bath with the SMS sample was perfused for 15 minutes with the solution of a test or reference substance. In this instance, GE and VT served as the test substances, and each dipeptide was tested at a concentration of 10^-6 g/ml.
Following perfusion with the test or reference substance, the SMS sample/organ bath was perfused for 10 minutes with a Krebs-Henseleit solution containing 30 mM KCl and then perfused for an additional 10 minutes with a Krebs-Henseleit solution containing 20 mM CaCl2. Next, each SMS sample was washed with a calcium-free Krebs-Henseleit solution for 40 minutes. The effect of the test or reference substance on the SMS sample was evaluated by measuring the contractile response (i.e., the change in contraction amplitude) of the sample following the addition of the Krebs-Henseleit solution containing 20 mM CaCl2.
Next, the organ bath was perfused for 10 minutes with a Krebs-Henseleit solution containing 30 mM KCl and then for additional 10 minutes with a Krebs-Henseleit solution containing 20 mM CaCl2. The effect of the respective test or reference substance was evaluated a second time by measuring the change in the contraction amplitude of the SMS following the addition of the Krebs-Henseleit solution containing 20 mM CaCl2. […]

[1] = system: Smooth Muscle Cells of Rat Portal Vein; assay: Spontaneous contractile activity of rat portal vein smooth muscle specimens; type: cell-based; settings: 5×10^-7 g/ml
Experimental: Rat portal vein SMS samples were surgically isolated from random bred rats weighing 200-250 g. The suitability of each isolated rat portal vein SMS was established by measuring the spontaneous contraction response and its contractile response of the specimen to potassium chloride (KCl) as follows. Each isolated SMS was placed into an organ bath with standard Krebs-Henseleit (KH) solution at 35° C. Then, 0.5 ml of physiological saline were added into the organ bath. In this procedure, one end of the smooth muscle strip was fixed, while the other end of the muscle strip was connected with a probe which transmitted contraction-induced signals to an analog-to-digital converter. The spontaneous contraction curve for each SMS was recorded by taking repeated measurements over a 1-minute period. Next, 0.5 ml of a 600 mM solution of KCl in physiological saline was added to the SMS sample/organ bath to achieve a final concentration of 60 mM KCl. KCl induces contraction of rat portal vein tissue at a fmal tissue concentration of about 60 mM.
The KCl-induced contraction curve for each specimen sample was then recorded over the next 5-minute period. […] During this stabilization period, the spontaneous contraction curve for each SMS was verified by monitoring the data obtained from analog-to-digital converter.
To each SMS in the organ bath prepared according to Steps 2 and 3 above, 0.5 ml of physiological saline was added, and the spontaneous contraction curve was recorded for 1 minute. Each spontaneous contraction curve served as baseline (control) curve for comparison with the respective spontaneous contraction of each SMS in the presence of a test substance or reference substance.
Spontaneous contraction curve values for each SMS were recorded by making repetitive measurements of the spontaneous contractile activity of each sample at 2, 5, 10, and 15 minutes after the addition of the test or reference substance to each SMS/organ bath. Next, 0.5 ml of a solution of 600 mM solution of KCl in […] in the organ bath until a final concentration of 60 mM KCl was achieved. The contractile activity of each SMS was then measured for 5 minutes.

ischemic myocardium = assay: Inotropic function and arrhythmias of ischemic isolated rat heart during reperfusion; settings: 0.06-6.0 mg/l
Text: Rat hearts were surgically isolated from white random-bred rats weighing approximately 250 g. The isolated hearts were perfused with a standard oxygenated (95% O2 and 5% CO2) Krebs-Henseleit solution in a retrograde manner (i.e., according to Langendorff and using a constant perfusate pressure of 80 cm of water). The hearts maintained a steady spontaneous contraction rate. A latex balloon catheter connected to a pressure transducer (EMT-746, Siemens-Elema, Sweden) was inserted into the left ventricle of each heart to measure the inotropic function of the heart (as described in Example 3, above). The left ventricle pressure variation curve was recorded using a polygraph.
Stage I ("adaptation regimen") consisted of a 30-minute adaptation of the respective rat hearts to the perfusion regimen. The baseline parameters for the inotropic function of each heart were recorded to establish the preischemic values for the following measured parameters: (i) the systolic pressure in the left ventricle (Psyst. mm Hg); (ii) the diastolic pressure in the left ventricle (Pdiast. mm Hg); (iii) the evolving pressure (Pev. =Psyst. -Pdist. mm Hg); (iv) the maximal rate of increase of left ventricle pressure (+dp/dtmax mm Hg/sec); and (v) the maximal rate of decrease of left ventricle pressure (-dp/dtmax mm Hg/sec). In addition, the heart rate (HR) of each heart was determined from the recordings made of the variations in the left ventricle pressure over time. In Stage II ("ischemic simulation"), ischemia was induced in each heart by shutting off the supply of the perfusion solution to the heart. Approximately 30 minutes later, Stage III ("reperfusion regimen") was initiated by restarting the reperfusion and including in the perfusate solution a test or control substance at one of the following respective concentrations: a perfusate solution of a test substance comprised 0.06, 0.6, or 6.0 mg/l GE, or 0.06, 0.6, or 6.0 mg/l VT, respectively; a perfusate solution of the positive control substance comprised 14 mg/l inosine. Inosine is a nucleoside preparation that produces a favorable inotropic effect on both normal and ischemic myocardium while inducing no rhythm disturbances or acceleration of ischemic contracture development. Woollard et al., Cardiovasc. Res. 15: 659-67 (1981). Inosine was obtained from Sigma Chemical Company, USA (Cat. Code I-4125; lot number 81H0227). The negative control substance comprised reperfusion using a standard oxygenated Krebs-Henseleit solution.
For each heart, the inotropic function of the myocardium was evaluated by measuring the parameters (i) through (v), discussed above, and the heart rate. These six parameters were recorded continuously throughout the study (i.e., beginning with Stage I and continuing through Stage III). The recordings were analyzed at the following times: (a) immediately before beginning Stage II (that is, after the 30-minute Stage I adaptation period, but before stopping perfusion); and (b) at 1, 5, 10, 20, and 30 minutes into the Stage III reperfusion.
The frequency and duration of rhythm disturbances in the 30-minute Stage III reperfusion period were determined by measuring the following parameters: (i) the number of ventricular extrasystoles; (ii) the overall duration of ventricular tachycardias (in seconds); and (iii) the overall duration of ventricular fibrillation (in seconds). Each dose of the test substance was tested on nine isolated hearts.

rats = assay: ECG parameters of cardiac function in Nembutal-anesthetized rats
Experimental: White random-bred male rats weighing about 200 g were anesthetized using Nembutal. A basal ECG was taken as soon as possible following anesthetization to establish basal measurements for the principal parameters of cardiac functions. Rats showing any deviation from normal ECG parameters were excluded from the study.
Each dose of each test substance was evaluated on a separate experimental group consisting of 10 rats. ECG traces (no less than 4 complexes each) were taken at 1, 3, 5, and 10 minutes after the injection of the test substance. Physiological saline served as the negative control substance. To each animal in the negative control group, 2 ml of physiological saline was injected intravenously.
Cardiac function was evaluated by monitoring the following ECG parameters:
(iv) the duration of the QT interval (which defines the time from the beginning of the QRS complex to the end of the T wave and reflects the duration of ventricular depolarization and repolarization). The normal value for this parameter for Nembutal-anesthetized rats is 50 to 106 ms using lead II ECG.

mice = assay: Chloroform-induced arrhythmia; type: in vivo; settings: 240 mg/kg i.p. 15 min before chloroform
Experimental: Each mouse in the study was treated by intraperitoneal injection of a dose of a test or control substance 15 minutes prior to the administration of a deep chloroform anesthesia. A test or control substance was then administered to each mouse. […] Novocainamide, a known antiarrhythmic agent, served as the positive control substance and was administered to mice in the positive control group at a dose of 240 mg/kg. Physiological saline served as the negative control substance and was administered to the mice in the negative control group.
Chloroform anesthesia was administered to each mouse by placing the mouse in an airtight glass container with cotton wool soaked in 20 ml of absolute chloroform. At the moment of respiratory arrest, the mouse was removed from the jar and electrocardiogram (ECG) monitoring (standard lead II) was initiated and continued for 30 seconds. […] An antiarrhythmic activity for a particular dose of a test substance is pharmaceutically acceptable if 30% of the animals in a test group show the latter test results (i.e., namely, no sign of ventricular paroxysmal rhythm disturbances and heart rate below 100 beats per 30 seconds within 30 seconds following the respiratory arrest).

In the case of COc1ccc([C@@H]2Sc3ccccc3N(CCN(C)C)C(=O)[C@@H]2OC(C)=O)cc1 [Diltiazem, diltiazem], the “Contraction Amplitude, calcium-induced (% of control level)” value (Intestinal Smooth Muscle; Application I, 10^-9 g/ml) is reported as 39.02% and the “Contraction Amplitude, calcium-induced (% of control level)” value (Intestinal Smooth Muscle; Application II, 10^-8 g/ml) is reported as 12.95%.
In the case of COc1ccc(CCN(C)CCCC(C#N)(c2ccc(OC)c(OC)c2)C(C)C)cc1OC (stereo not shown) [Verapamil, reference compound], the “Amplitude of spontaneous contraction (% of Control)” value (“Amplitude … (% of Control)” below) ([1]; 2 min after application) is reported as 95.82%, the “Area Under Curve of spontaneous contraction (% of Control)” value (from here on “Area Under Curve … (% of Control)”) ([1]; 2 min after application) is reported as 82.41% and the “Amplitude … (% of Control)” value ([1]; 5 min after application) is reported as 78.58%. The “Area Under Curve … (% of Control)” value ([1]; 5 min after application) was 62.11%, the “Amplitude … (% of Control)” value ([1]; 10 min after application) was 60.79% and the “Area Under Curve … (% of Control)” value ([1]; 10 min after application) was 49.83%. The “Amplitude … (% of Control)” value ([1]; 15 min after application) was 37.92% and the “Area Under Curve … (% of Control)” value ([1]; 15 min after application) was 35.13%.
With CN1[C@@H]2CC[C@H]1C[C@@H](OC(=O)C(CO)c1ccccc1)C2 (stereo partly shown) [Atropine, atropine] the “Contraction Amplitude, calcium-induced (% of control level)” value (Intestinal Smooth Muscle; Application I, 10^-7 g/ml) was 39.57% and the “Contraction Amplitude, calcium-induced (% of control level)” value (Intestinal Smooth Muscle; Application II, 10^-6 g/ml) was 25.08%.
CC(C)[C@H](N)C(=O)N[C@H](C(=O)O)[C@@H](C)O [VT, L-Valine-L-Threonine] (H-Val-Thr-OH) was tested, and the “arrhythmogenic effect during reperfusion” value (ischemic myocardium) was “Neither GE nor VT was found to have an arrhythmogenic effect”, the “Duration of QT Interval (% of Initial Mean Value)” value (rats; 0.001 mg/kg i.v., 1 min) was 101.80% and the “Duration of QT Interval (% of Initial Mean Value)” value (rats; 0.001 mg/kg i.v., 3 min) was 105.73%. The “Duration of QT Interval (% of Initial Mean Value)” value (rats; 0.001 mg/kg i.v., 5 min) was 102.20%, the “Duration of QT Interval (% of Initial Mean Value)” value (rats; 0.001 mg/kg i.v., 10 min) was 101.24% and the “Duration of QT Interval (% of Initial Mean Value)” value (rats; 0.01 mg/kg i.v., 1 min) was 99.86%. The “Duration of QT Interval (% of Initial Mean Value)” value (rats; 0.01 mg/kg i.v., 3 min) was 101.48%, the “Duration of QT Interval (% of Initial Mean Value)” value (rats; 0.01 mg/kg i.v., 5 min) was 101.09% and the “Duration of QT Interval (% of Initial Mean Value)” value (rats; 0.01 mg/kg i.v., 10 min) was 97.32%. The “Duration of QT Interval (% of Initial Mean Value)” value (rats; 0.1 mg/kg i.v., 1 min) was 102.97%, the “Duration of QT Interval (% of Initial Mean Value)” value (rats; 0.1 mg/kg i.v., 3 min) was 98.39% and the “Duration of QT Interval (% of Initial Mean Value)” value (rats; 0.1 mg/kg i.v., 5 min) was 95.65%. For the same compound, the “Duration of QT Interval (% of Initial Mean Value)” value (rats; 0.1 mg/kg i.v., 10 min) was 90.67%, the “Duration of QT Interval (% of Initial Mean Value)” value (rats; 1.0 mg/kg i.v., 1 min) was 105.57% and the “Duration of QT Interval (% of Initial Mean Value)” value (rats; 1.0 mg/kg i.v., 3 min) was 105.58%. For the same compound, the “Duration of QT Interval (% of Initial Mean Value)” value (rats; 1.0 mg/kg i.v., 5 min) was 102.18%, the “Duration of QT Interval (% of Initial Mean Value)” value (rats; 1.0 mg/kg i.v., 10 min) was 101.18% and the “Duration of QT Interval (% of Initial Mean Value)” value (rats; 10.0 mg/kg i.v., 1 min) was 94.89% and 102.97%. For the same compound, the “Duration of QT Interval (% of Initial Mean Value)” value (rats; 10.0 mg/kg i.v., 3 min) was 95.91% and 105.82%, the “Duration of QT Interval (% of Initial Mean Value)” value (rats; 10.0 mg/kg i.v., 5 min) was 96.52% and 103.51% and the “Duration of QT Interval (% of Initial Mean Value)” value (rats; 10.0 mg/kg i.v., 10 min) was 88.88% and 104.78%. The “Duration of QT Interval (% of Initial Mean Value)” value (rats; 100.0 mg/kg i.v., 1 min) was 100.00% and 96.62%, the “Duration of QT Interval (% of Initial Mean Value)” value (rats; 100.0 mg/kg i.v., 3 min) was 100.82% and 100.45% and the “Duration of QT Interval (% of Initial Mean Value)” value (rats; 100.0 mg/kg i.v., 5 min) was 97.96% and 99.74%. For the same compound, the “Duration of QT Interval (% of Initial Mean Value)” value (rats; 100.0 mg/kg i.v., 10 min) was 94.74% and 102.25%.
For CCN(CC)CCNC(=O)c1ccc(N)cc1 [Novocainamide, reference compound], the “Antiarrhythmic Effect (no. animals) %” value (mice) was 77.8%, the “Antiarrhythmic Effect (no. animals) abs” value (mice) was 7 and the Result (mice) was “Antiarrhythmic effect”.
